Tests used:
Assay in all cases: cell-based
EP4 = EP4 (Homo sapiens, UniProt P35408);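 further: inhibition of PGE2-evoked (6 nM) cAMP accumulation in BT549 breast cancer cells endogenously expressing EP4, cAMP read by HTRF competitive immunoassay after 30 min at room temperature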
EP2 = EP2 (Homo sapiens, UniProt P43116);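 further: SF295 glioblastoma cells with endogenous EP2 only, PGE2-stimulated cAMP accumulation read by HTRF competitive immunoassay, 45 min pre-incubation then 30 min at room temperature, IBMX in buffer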
Experimental: The antagonistic activities of the compounds of formula (I) on the EP2 and EP4 receptors are also determined in accordance with the following experimental method.
Human tumor cell lines expressing endogenously either EP4 or EP2 are used and cAMP accumulation in cells upon PGE2 stimulation is monitored. SF295 glioblastoma cells express high endogenous EP2 and no EP4,whereas BT549 breast cancer cells, express high endogenous EP4 levels and very low EP2 levels.
As a detection method for cAMP the HTRF (homogeneous time resolved fluorescence) Cisbio kit (HTRF cAMP dynamic 2 kit 20′000 tests Cisbio Cat. #62AM4PEC) was used, which is based on a competitive immunoassay using a Cryptate-labeled anti-cAMP antibody and d2-labeled cAMP. Native cAMP produced by cells or unlabeled cAMP (for the standard curve) compete with exogenously added d2-labeled cAMP (acceptor) for binding to monoclonal anti-cAMP-Eu3+ Cryptate (donor). A FRET signal (Fluorescence Resonance Energy Transfer) is obtained only if the labeled anti-cAMP antibody binds the d2 labelled cAMP, thus the specific signal (i.e. energy transfer) is inversely proportional to the concentration of cAMP in the standard or sample.
The SF295 cells (NCI/No. 0503170) are detached from culture dishes with a cell dissociation buffer (Invitrogen, 13151-014), and collected in growing medium (GM: RPM11640 (Invitrogen 21875)/10% FCS, 1% Penicilin/streptomycin). Cells are counted washed and resuspended in assay buffer (AB; HBSS, 20 mM HEPES, 0.2% BSA; 2 mM IBMX). 4′000 cells in 5 μl of AB are seeded per well of a small volume 384 well plate (black with flat bottom, Greiner 784076).
PGE2 (Cayman 14010, stock solution: 750 in DMSO) is used as agonist at 75 nM final concentration, corresponding to EC80.
Two point five microliters of diluted compounds are transferred into the assay plate. Plate is pre-incubated 45 minutes at room temperature. Subsequently, 2.5 microliters of PGE2 (final conc. 75 nM) are transferred into the assay plate. Plate is incubated 30 minutes at room temperature.
For each compound concentration the percentage of cAMP compared to DMSO control value as average±STDEV (each concentration is measured in duplicate) is calculated.

PTGER2 (EP2) = PTGER2 (EP2) (Homo sapiens, UniProt P43116)
PTRGER4 (EP4) = PTRGER4 (EP4) (Homo sapiens, UniProt P35408);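 further: assay plate preincubated 15 min at 37 °C, after which PGE2 was added at 20 nM final and incubation continued 120 min at 37 °C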
Chain of PTRGER4 (EP4) (P35408 whole entry): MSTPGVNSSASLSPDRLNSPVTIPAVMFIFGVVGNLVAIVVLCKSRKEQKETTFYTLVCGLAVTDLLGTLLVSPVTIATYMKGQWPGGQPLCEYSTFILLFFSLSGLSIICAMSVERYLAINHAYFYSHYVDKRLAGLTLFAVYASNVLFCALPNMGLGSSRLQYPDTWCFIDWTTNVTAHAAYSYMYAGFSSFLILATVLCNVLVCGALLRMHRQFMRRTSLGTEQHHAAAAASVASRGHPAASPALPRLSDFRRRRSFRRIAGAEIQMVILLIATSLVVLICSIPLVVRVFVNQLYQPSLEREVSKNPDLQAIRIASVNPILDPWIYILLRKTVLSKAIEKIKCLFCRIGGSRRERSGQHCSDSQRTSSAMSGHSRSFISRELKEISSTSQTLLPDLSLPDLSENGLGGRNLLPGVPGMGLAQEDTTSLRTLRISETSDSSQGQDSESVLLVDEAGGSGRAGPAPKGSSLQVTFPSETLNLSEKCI
Text: The assay is using the PathHunter™ HEK 293 PTGER2 and PTGER4 b-arrestin cell lines from DiscoverX. The system is based on the Enzyme Fragment Complementation Technology. Two complementing fragments of the b-galactosidase enzyme are expressed within stably transfected cells. The larger portion of b-gal, termed EA for Enzyme Acceptor, is fused to the C-terminus of b-arrestin 2. The smaller fragment, termed ProLink™ tag, is fused to PTGER2 (EP2) or PTRGER4 (EP4) at the C-terminus. Upon activation, b-arrestin is recruited which forces the interaction of ProLink and EA, allowing complementation of the two fragments of b-gal and the formation of a functional enzyme which is capable of hydrolysing the substrate and generating a chemiluminescent signal.
The HEK 293 PTGER4 b-arrestin cells (DiscoverX 93-030-4C1) are detached from culture dishes with a cell dissociation buffer (Invitrogen, 13151-014), and collected in growing medium (GM: DMEM+Glutamax-I (Invitrogen 32430)/10% FCS, 1% Penicilin/streptomycin). 5000 cells per well of a 384 well plate (white with white bottom Greiner 781080) are seeded in 20 ul per well of GM. Plate is incubated at 37° C., 5% CO2 for 24 hours.
Stock solutions of test compounds are made at a concentration of 10 mM in DMSO, and serially diluted in DMSO to concentrations required for inhibition dose response curves (tested concentration range 10 μM-2 nM or 1 μM-0.2 nM).
PGE2 (Cayman 14010, stock solution: 100 uM in DMSO) is used as agonist at 20 nM final concentration, corresponding to EC80.
Five microliters of diluted compounds are transferred into the assay plate. Plate is pre-incubated 15 minutes at 37° C. Then five microliters of PGE2 (final conc. 20 nM) are transferred into the assay plate. Plate is incubated 120 minutes at 37° C.
Twelve μl of reagent are transferred to the assay plate and incubate for 1 hour at room temperature in the dark. Luminescence counts are read on a BMG Fluostar Optima reader according to manufacturers instructions.
For each compound concentration calculate of the percentage of activity compared to DMSO control value as average±STDEV. (each concentration is measured in duplicate)
When compounds were measured multiple times, mean values are given.

Chain of EP4 (P35408 whole entry): as above
Chain of EP2 (P43116 whole entry): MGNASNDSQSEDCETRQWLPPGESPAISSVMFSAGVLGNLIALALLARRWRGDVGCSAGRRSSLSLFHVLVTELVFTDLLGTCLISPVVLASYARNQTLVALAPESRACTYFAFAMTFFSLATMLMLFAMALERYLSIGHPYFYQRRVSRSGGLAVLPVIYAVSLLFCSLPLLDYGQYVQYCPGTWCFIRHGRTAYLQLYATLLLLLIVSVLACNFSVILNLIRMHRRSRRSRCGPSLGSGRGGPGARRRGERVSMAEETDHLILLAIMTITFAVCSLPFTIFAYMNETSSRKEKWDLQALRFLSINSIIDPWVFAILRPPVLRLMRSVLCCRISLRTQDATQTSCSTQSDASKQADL
Chain of PTGER2 (EP2) (P43116 whole entry): as above

| IC50 (EP4) [nM] | IC50 (EP2) [nM] | IC50 (PTGER2 (EP2)) [nM] | IC50 (PTRGER4 (EP4)) [nM] | Compound |
| --- | --- | --- | --- | --- |
| 19 | 32 | 29 | 27 | CCOc1cc(-c2cc(NCCc3ccc(Cl)cc3Cl)ncn2)sc1-c1noc(=O)[nH]1 [Example 123, 3-(5-{6-[2-(2,4-Dichloro-phenyl)-ethylamino]-pyrimidin-4-yl}-3-ethoxy-thiophen-2-yl)-[1,2,4]oxadiazol-5(4H)-one] |
| 42 | 198 | 368 | 56 | CCOc1cc(-c2cc(NCCc3ccc(Br)cc3)ncn2)ccc1-c1noc(=O)[nH]1 [Example 15, 3-(4-{6-[2-(4-Bromo-phenyl)-ethylamino]-pyrimidin-4-yl}-2-ethoxy-phenyl)-[1,2,4]oxadiazol-5(4H)-one] |
| 72 | 59 | 23 | 37 | CNc1cc(-c2cc(NCCc3c(F)cc(Br)cc3F)ncn2)ccc1C(=O)NCCO [Example 276, 4-{6-[2-(4-Bromo-2,6-difluoro-phenyl)-ethylamino]-pyrimidin-4-yl}-N-(2-hydroxy-ethyl)-2-methylamino-benzamide] |
| 94 | 265 | 36 | 108 | COc1cc(-c2cc(NCCc3c(F)cc(Br)cc3F)ncn2)ccc1-c1cc(O)no1 [Example 174, 5-(4-{6-[2-(4-Bromo-2,6-difluoro-phenyl)-ethylamino]-pyrimidin-4-yl}-2-methoxy-phenyl)-isoxazol-3-ol] |
| 18 | 17 | 18 | 6 | Cc1cc(-c2cc(NCCc3c(F)cc(Br)cc3F)ncn2)sc1-c1noc(=O)[nH]1 [Example 136, 3-(5-{6-[2-(4-Bromo-2,6-difluoro-phenyl)-ethylamino]-pyrimidin-4-yl}-3-methyl-thiophen-2-yl)-[1,2,4]oxadiazol-5(4H)-one] |
| 326 | 900 | 138 | 41 | CCOc1c(C(N)=O)sc(-c2cc(NCCc3c(F)cc(Br)cc3F)ncn2)c1Cl [Example 293, 5-{6-[2-(4-Bromo-2,6-difluoro-phenyl)-ethylamino]-pyrimidin-4-yl}-4-chloro-3-ethoxy-thiophene-2-carboxylic acid amide] |
| 66 | 8 | 13 | 33 | CCOc1cc(-c2cc(NCCc3c(F)cc(Br)cc3F)ncn2)sc1C(=O)NS(C)(=O)=O [Example 154, N-(5-{6-[2-(4-Bromo-2,6-difluoro-phenyl)-ethylamino]-pyrimidin-4-yl}-3-ethoxy-thiophene-2-carbonyl)-methanesulfonamide] |
| 5 | 49 | 11 | 3 | CCOc1cc(-c2cc(NCCc3ccc(Br)cc3F)ncn2)sc1-c1noc(=O)[nH]1 [Example 125, 3-(5-{6-[2-(4-Bromo-2-fluoro-phenyl)-ethylamino]-pyrimidin-4-yl}-3-ethoxy-thiophen-2-yl)-[1,2,4]oxadiazol-5(4H)-one] |
| 29 | 43 | 69 | 3 | CCc1nc(-c2cc(NCCc3c(F)cc(Br)cc3F)ncn2)sc1-c1noc(=O)[nH]1 [Example 151, 3-(2-{6-[2-(4-Bromo-2,6-difluoro-phenyl)-ethylamino]-pyrimidin-4-yl}-4-ethyl-thiazol-5-yl)-[1,2,4]oxadiazol-5(4H)-one] |
| 53 | 27 | 16 | 133 | CCOc1cc(-c2cc(NCCc3ccc(Cl)cc3Cl)ncn2)sc1C(=O)O [Example 66, 5-{6-[2-(2,4-Dichloro-phenyl)-ethylamino]-pyrimidin-4-yl}-3-ethoxy-thiophene-2-carboxylic acid] |
| 189 | 249 | 39 | 14 | CCOc1cc(-c2cc(NCCc3ccc(Br)cc3)ncn2)sc1NC(N)=O [Example 146, (5-{6-[2-(4-Bromo-phenyl)-ethylamino]-pyrimidin-4-yl}-3-ethoxy-thiophen-2-yl)-urea] |
